In PMC5318439, “The Novel Toll-Like Receptor 2 Agonist SUP3 Enhances Antigen Presentation and T Cell Activation by Dendritic Cells” (Frontiers in Immunology, 2017):
Where a SMILES comes first, the peptide text is derived from it. The star is where a group is joined. X1 = CCCCCCCCCCCCCCNC(=O)OC[C@H](C*)OC(=O)NCCCCCCCCCCCCCC; Palmitoyl = CCCCCCCCCCCCCCCC(=O)*

What was measured:
[1] = system: OVA-specific CD8^+ T cells; assay: OCS immunization, OVA-specific CD8+ T cells (CTL induction) in spleen; type: in vivo, C57BL/6 mice; details: 10 nmol, data not shown; for CTL induction at high dose: OCS immunization; for spleen size at high dose: mice
Procedure: Splenocytes were X-ray irradiated (1500 Rad) and then coated with OVA (1 mg per spleen) in RPMI 1640 medium (Gibco 11875-119) for 30 min at 37°C. Cells were washed twice with RPMI 1640 medium. […] Seven days post-immunization, OVA-specific CD8^+ T cells in spleen were analyzed by flow cytometry by staining with fluorescence-conjugated antibodies against CD19 (eBioscinece, clone 1D3), CD3 (eBioscinece, clone 145-2C11), CD8 (eBioscinece, clone 53-6.7), and SIINFEKL/H-2Kb-Pentamer (ProImmune F093-4A).
Figure 2 SUP3 induced more vigorous cytotoxic T lymphocytes (CTLs) responses than Pam3CSK4 without excessive production of inflammatory cytokines in vivo. […] The percentages of pentamer positive cells (CD19^− CD3^+ CD8^+ SIINFEKL/H-2Kb-Pentamer^+) in spleens, i.e., the OVA-specific CD8^+ T cells, were determined by flow cytometry (A) and the statistic calculation is presented in (B). Representative data from three independent experiments with three mice in each group were presented. (C,D) Mice were immunized as in (A) for 30 days, then inoculated with OVA-expressing B16 melanoma cells (B16-OVA) (5 × 10^5 cells per mouse) by i.v. injection and analyzed for metastatic tumor formation in the lung 16 days after inoculation. Data from two independent experiments with three mice in each group were shown. […] “n.d.” indicates “not detected.” *p < 0.05, **p < 0.01. TEXT PRINTED IN THE PICTURE: (A) Pam3: Pentamer^+ (% of CD8^+ T): 1.57 (OCS) | (A) SUP3: Pentamer^+ (% of CD8^+ T): 2.98 (OCS) | (E) Pam3: IL-12p40 (ng/mL): n.d | (E) SUP3: IL-12p40 (ng/mL): n.d DOUBTS OF THE COPYIST ABOUT THIS PICTURE: Panel A also prints 0.37 for the control Non and 0.72 for the vehicle control PBS (OCS). Both are left out because they are controls, not test substances. / Panel E prints n.d for the vehicle control PBS in all four plots. These are left out for the same reason.

CD8^+ cDCs = assay: Costimulatory and MHC molecule expression on CD8+ cDCs in vitro; type: cell-based, mice; details: 200 nM, GM-CSF 20 ng/mL, 24 h, flow cytometry
Procedure: Single cell suspensions were prepared, and cells were stained by fluorescence-conjugated antibodies and viability dye 7-AAD (eBioscience 00-6993) at 4°C for 30 min in the dark. Cells were washed, resuspended, and analyzed on LSR Fortessa (Becton Dickinson).
Figure 4 SUP3 stimulated maturation of CD8^+ conventional dendritic cells (cDCs). (A) Purified CD8^+ cDCs were treated with SUP3 (200 nM) or Pam3 (200 nM) in the presence of granulocyte-macrophage colony-stimulating factor (GM-CSF) (20 ng/mL) for 24 h. The surface expression of costimulatory and major histocompatibility complex (MHC) molecules were then analyzed by flow cytometry. Representative data from three independent experiments were shown. “Isotype” represented relative isotype antibody staining of Pam3 or SUP3 stimulated cells. (B) SUP3 (2 nmol per mouse), Pam3 (2 nmol per mouse), or PBS were i.v. injected into mice for 1 h. Splenic CD8^+ cDCs were enriched, and surface expression of CD40 and CD86 was analyzed by flow cytometry. Representative data from two independent experiments with three mice for each group were shown. […] Supernatants were harvested 24 and 48 h post-stimulation, and cytokines were measured by ELISA. […]

| spleen size at high dose [1] | Compound | CTL induction at high dose [1] | expression of CD40, CD80, CD86, and MHC-II on CD8+ cDCs (CD8^+ cDCs) |
| --- | --- | --- | --- |
| enlarged spleens | CCCCCCCCCCCCCCCC(=O)N[C@@H](CSC[C@@H](COC(=O)NCCCCCCCCCCCCCC)OC(=O)NCCCCCCCCCCCCCC)C(=O)NCC(=O)N[C@@H](CCCCN)C(=O)N[C@@H](CCCCN)C(=O)N[C@@H](CCCCN)C(=O)O [SUP3, (2S,5S,8S,14R,18R)-2,5,8-tris(4-aminobutyl)-4,7,10,13,21-pentaoxo-14-palmitamido-18-((tetradecylcarbamoyl)oxy)-20-oxa-16-thia-3,6,9,12,22-pentaazahexatriacontan-1-oic acid] (Palmitoyl-C(X1)GKKK-OH) | decreased CTL induction | substantial upregulation |
| did not have the same effect | Pam3CSK4 [reference compound] | did not have the same effect | substantial upregulation |
